According to patent US8409581B2, “Compounds for treating amyloidoses” (Affiris AG, priority 2008, dated 2013):
Ends that are not written are not given here.

Assays:
[1] = tested on: monoclonal antibody MV-002; assay: In vitro binding assay (ELISA) of mimotopes to parental antibody; set-up: species or system mice; settings: peptide coupled to BSA bound to ELISA plates (1 μM); parental antibody MV-002
Description: 1. In Vitro Binding Assay (ELISA)
Peptides derived from Phage Display as well as variants thereof were coupled to BSA and bound to ELISA plates (1 μM; as indicated in the respective figures) and subsequently incubated with the monoclonal antibody that was used for the screening procedure to analyse binding capacity of identified peptides.

[2] = tested on: injected peptide; assay: Mimotope vaccination of mice, serum titer ELISA against injected peptide; format: in vivo, C57/B16 mice; settings: 30 μg peptide-KLH, alum, s.c., FIG. 4
Description: (§1) Inhibiting as well as non-inhibiting peptides were coupled to KLH and injected into mice (wildtype C57/B16 mice; subcutaneous injection into the flank) together with an appropriate adjuvant (aluminium hydroxide). Animals were vaccinated 3-6 times in biweekly intervals and sera were taken biweekly as well. Titers to injected peptides, as well as to an irrelevant peptide were determined with every serum. Furthermore, titers against the recombinant human Aβ protein, and against original peptides were determined respectively. In general sera were analysed by reaction against peptides coupled to Bovine Serum Albumin (BSA) and recombinant full length proteins which were immobilised on ELISA plates. Titers were determined using anti mouse IgG specific antibodies. For detailed results see FIGS. 4, 5 and 6 respectively.
(§2) Female C57/b16 mice, 5-6 mice per group, were subcutaneously immunized with 30 μg peptide coupled to KLH. Control groups were administered original epitope-KLH conjugates respectively. As adjuvant alum was used (always 1 mg per mouse). […] The in vitro ELISA assay to determine the antibody titer was performed with sera of single mice after each vaccination in a two week interval (see FIGS. 6 and 7 respectively). Titers were calculated as OD max/2 in all figures shown. The wells of the ELISA plate were coated with mimotope-BSA conjugate and an irrelevant peptide-BSA conjugate (negative control). The positive control was performed by reaction of the parental antibody with the respective mimotope-BSA conjugate. The detection was performed with anti-mouse IgG. Additionally, recombinant proteins were immobilised on ELISA plates and sera reacted accordingly. FIGS. 4, 5 and 6 show representative examples for assays used to characterise mimotopes in vivo.

[3] = tested on: p1454 (unrelated sequence); assay: Mimotope vaccination of mice, serum titer ELISA against irrelevant peptide; format: in vivo, C57/B16 mice; settings: 30 μg peptide-KLH, alum, s.c., FIG. 4
Description: as §1, §2

[4] = tested on: original epitope p4377; assay: Mimotope vaccination of mice, serum titer ELISA against original epitope; format: in vivo, C57/B16 mice; settings: 30 μg peptide-KLH, alum, s.c., FIG. 5
Description: as §1, §2

[5] = tested on: monoclonal antibody MV-002 binding to the original epitope; assay: In vitro inhibition assay (ELISA); set-up: species or system mice; settings: for Inhibition Capacity (competition code): OD at 5 ug peptide compared to original peptide, MV-002; for inhibition in in vitro inhibition/competition assay: MV-002, original epitope coated on ELISA plates
Description: 2. In Vitro Inhibition Assay (ELISA)
Different amounts of peptides (concentrations ranging from 5 μg to 0.03 μg; serial dilutions), derived from Phage Display were incubated with the monoclonal antibody that was used for the screening procedure. Peptides diminishing subsequent binding of the antibody to the original epitope coated on ELISA plates were considered as inhibiting in this assay.

Row | Substance | Binding Capacity (binding code; OD halfmax 1:X, dilution factor of the parental AB) [1] | further results
1 | AGEIYFERC [p4806, MV-002 mimotope peptide] | 1 (weak binding :<40000) | –
2 | AIPLFVMC [p4682, MV-002 mimotope peptide] | 1 (weak binding :<40000) | –
3 | Ac-GEIYFERC [p4804, MV-002 mimotope peptide, N-terminally acetylated] | 2 (medium binding :40000-320000) | –
4 | CGEIYFER [p4807, MV-002 mimotope peptide] | 1 (weak binding :<40000) | –
5 | EVHHQKLVFC [p4377, reference compound] | – | immune response against injected peptide [2]: elicited immune responses; unspecific immune response against unrelated sequence (p1454) [3]: failed to induce a relevant unspecific immune response; immune response against the original epitope p4377 [4]: mounted detectable immune responses
6 | GDLKFPLC [p4683, MV-002 mimotope peptide] | 3 (strong binding :>320000) | –
7 | GEIKFDHC [p4698, MV-002 mimotope peptide] | 3 (strong binding :>320000) | Inhibition Capacity (competition code) [5]: 2 (strong inhibition (as original epitope; OD of peptide below 2, 3 times of original peptide))
8 | GEILFGMC [p4689, MV-002 mimotope peptide] | 3 (strong binding :>320000) | Inhibition Capacity (competition code) [5]: 1 (Weaker than original epitope (OD of peptide below 4, 6 times of original peptide))
9 | GEIQFGAC [p4699, MV-002 mimotope peptide] | 3 (strong binding :>320000) | Inhibition Capacity (competition code) [5]: 1 (Weaker than original epitope (OD of peptide below 4, 6 times of original peptide))
10 | GEIRFALC [p4678, MV-002 mimotope peptide] | 3 (strong binding :>320000) | –
11 | GEIRFELC [p4796, MV-002 mimotope peptide] | 2 (medium binding :40000-320000) | –
12 | GEIRFGSC [p4696, MV-002 mimotope peptide] | 3 (strong binding :>320000) | –
13 | GEIWFEGC [p4680, MV-002 mimotope peptide] | 3 (strong binding :>320000) | inhibition in in vitro inhibition/competition assay [5]: active in in vitro inhibition assays; Inhibition Capacity (competition code) [5]: 2 (strong inhibition (as original epitope; OD of peptide below 2, 3 times of original peptide)); immune response against injected peptide [2]: elicited immune responses; unspecific immune response against unrelated sequence (p1454) [3]: failed to induce a relevant unspecific immune response; immune response against the original epitope p4377 [4]: mounted detectable immune responses
14 | GEIYFERC [p4681, MV-002 mimotope peptide] | 3 (strong binding :>320000) | inhibition in in vitro inhibition/competition assay [5]: active in in vitro inhibition assays; Inhibition Capacity (competition code) [5]: 2 (strong inhibition (as original epitope; OD of peptide below 2, 3 times of original peptide)); immune response against injected peptide [2]: elicited immune responses; unspecific immune response against unrelated sequence (p1454) [3]: failed to induce a relevant unspecific immune response; immune response against the original epitope p4377 [4]: mounted detectable immune responses
15 | GELFFEKC [p4795, MV-002 mimotope peptide] | 2 (medium binding :40000-320000) | –
16 | GELFFPKC [p4685, MV-002 mimotope peptide] | 3 (strong binding :>320000) | –
17 | GELQFPPC [p4672, MV-002 mimotope peptide] | 3 (strong binding :>320000) | –
18 | GELWFPC [p4673, MV-002 mimotope peptide] | 3 (strong binding :>320000) | Inhibition Capacity (competition code) [5]: 1 (Weaker than original epitope (OD of peptide below 4, 6 times of original peptide))
19 | GELYFRAC [p4677, MV-002 mimotope peptide] | 3 (strong binding :>320000) | –
20 | GEMQFFIC [p4676, MV-002 mimotope peptide] | 3 (strong binding :>320000) | –
21 | GEMWFALC [p4671, MV-002 mimotope peptide] | 3 (strong binding :>320000) | –
22 | GMIVFPHC [p4679, MV-002 mimotope peptide] | 3 (strong binding :>320000) | –
23 | GQIIFQSC [p4668, MV-002 mimotope peptide] | 2 (medium binding :40000-320000) | –

Row | Substance | Binding Capacity (binding code; OD halfmax 1:X, dilution factor of the parental AB) [1] | further results
24 | GQIKFAQC [p4694, MV-002 mimotope peptide] | 3 (strong binding :>320000) | –
25 | GQILFPVC [p4684, MV-002 mimotope peptide] | 3 (strong binding :>320000) | –
26 | GQIMFPRC [p4686, MV-002 mimotope peptide] | 3 (strong binding :>320000) | –
27 | GQIQFPLC [p4697, MV-002 mimotope peptide] | 3 (strong binding :>320000) | –
28 | GQIRFDHC [p4669, MV-002 mimotope peptide] | 3 (strong binding :>320000) | –
29 | GQIWFISC [p4666, MV-002 mimotope peptide] | 1 (weak binding :<40000) | –
30 | GQLKFPFC [p4690, MV-002 mimotope peptide] | 3 (strong binding :>320000) | –
31 | GSLFFWPC [p4688, MV-002 mimotope peptide] | 2 (medium binding :40000-320000) | –
32 | GTIFFRDC [p4692, MV-002 mimotope peptide] | 1 (weak binding :<40000) | –
33 | GTLIFHHC [p4695, MV-002 mimotope peptide] | 2 (medium binding :40000-320000) | –
34 | HMRMYFEC [p4687, MV-002 mimotope peptide] | 3 (strong binding :>320000) | –
35 | HQKMIFC [p4794, MV-002 mimotope peptide] | 2 (medium binding :40000-320000) | Inhibition Capacity (competition code) [5]: 1 (Weaker than original epitope (OD of peptide below 4, 6 times of original peptide))
36 | KLPLFVMC [p4691, MV-002 mimotope peptide] | 1 (weak binding :<40000) | –
37 | NDAKIVFC [p4667, MV-002 mimotope peptide] | 3 (strong binding :>320000) | Inhibition Capacity (competition code) [5]: 1 (Weaker than original epitope (OD of peptide below 4, 6 times of original peptide))
38 | QLPLFVLC [p4700, MV-002 mimotope peptide] | 1 (weak binding :<40000) | –
39 | SGEIHFNC [p4415, MV-002 mimotope peptide] | 1 (weak binding :<40000) | –
40 | SGEIYFERC [p4805, MV-002 mimotope peptide] | 1 (weak binding :<40000) | –
41 | SGEYVFHC [p4404, MV-002 mimotope peptide] | 1 (weak binding :<40000) | –
42 | SGQIWFRC [p4414, MV-002 mimotope peptide] | 1 (weak binding :<40000) | –
43 | SGQLKFPC [p4413, MV-002 mimotope peptide] | 1 (weak binding :<40000) | –
44 | SHQRLWFC [p4674, MV-002 mimotope peptide] | 3 (strong binding :>320000) | Inhibition Capacity (competition code) [5]: 1 (Weaker than original epitope (OD of peptide below 4, 6 times of original peptide))
45 | THQRLWFC [p4693, MV-002 mimotope peptide] | 3 (strong binding :>320000) | –
